Among the test systems are NCI-H23; CCRF-CEM; SR; OVCAR-3; OVCAR-8; SK-MEL-5; HCT-116; SF-295; HT-29; SK-MEL-28; IGROV-1; CAKI-1; OVCAR-4; HL-60; K562; RXF 393; 786-0; NCI-H226; MOLT-4; SNB-19.
Common to all, as to experiment: NCI-60 cell line screen, 48 h

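How tested: cells in 96-well plates exposed to compound for 48 hours at five concentrations. Here, GI50 denotes the concentration required for 50% inhibition of growth.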 Activity calls are given as the source filed them. Rule as the data show it: active = GI50 up to about 1.1 µM and inactive = higher.

As for `CCOC(=S)SCC(=O)O`, the GI50 in the assay with NCI-H23 is > 100 µM (inactive); in the assay with CCRF-CEM, 1 µM (active); with SR it was > 100 µM (inactive); with OVCAR-3 it was > 100 µM (inactive); with OVCAR-8, > 100 µM (inactive); with SK-MEL-5, > 100 µM (inactive). In addition, the GI50 with HCT-116, with SF-295, in the assay with HT-29, in the assay on SK-MEL-28, with IGROV-1 and in the assay with CAKI-1 was > 100 µM (inactive) in each case. Besides, the GI50 in the assay with OVCAR-4 is > 100 µM (inactive); in the assay on HL-60 it was 2.01 µM (inactive); in the assay with K562, > 100 µM (inactive); in the assay with RXF 393, > 100 µM (inactive); in the assay on 786-0 it was > 100 µM (inactive); with NCI-H226, > 100 µM (inactive). Moreover, the GI50 in the assay with MOLT-4 and with SNB-19 was > 100 µM (inactive) each time.

Turning to `COC(=O)[C@H]1C=C[C@H](OC2OC(COC(C)=O)C(OC(C)=O)C(OC(C)=O)C2OC(C)=O)n2c(=O)n(-c3ccccc3)c(=O)n21` (stereo not given in full), the GI50 is 4.99 µM (inactive) with NCI-H23; 2.25 µM (inactive) in the assay with CCRF-CEM; 2.03 µM (inactive) in the assay with SR; 2.91 µM (inactive) in the assay with OVCAR-3; 5.78 µM (inactive) in the assay with OVCAR-8; 2.12 µM (inactive) with SK-MEL-5. The GI50 is 2.96 µM (inactive) in the assay on HCT-116; 13.1 µM (inactive) with SF-295; 2.61 µM (inactive) with HT-29; 2.49 µM (inactive) in the assay with SK-MEL-28; 4.98 µM (inactive) with IGROV-1; 0.935 µM (active) in the assay on CAKI-1. Also, the GI50 is 2.87 µM (inactive) with OVCAR-4; 0.406 µM (active) in the assay on HL-60; 1.77 µM (inactive) with K562; 1.82 µM (inactive) in the assay on RXF 393; 2.45 µM (inactive) in the assay with 786-0; 7.06 µM (inactive) with NCI-H226. Further, the results for the GI50 with MOLT-4 and with SNB-19 were 2.49 µM (inactive) and 16.7 µM (inactive), respectively.

On to `O=[N+]([O-])c1ccc2[nH]c(=S)[nH]c(=S)c2c1`, for which the GI50 in the assay with NCI-H23, with CCRF-CEM, in the assay on SR, in the assay on OVCAR-3, in the assay on OVCAR-8 and with SK-MEL-5 was > 100 µM (inactive) throughout. Further, the GI50 in the assay with HCT-116, in the assay on SF-295, in the assay on HT-29, in the assay with SK-MEL-28, in the assay with IGROV-1 and in the assay with CAKI-1 was > 100 µM (inactive) throughout. For the same compound, the GI50 in the assay on OVCAR-4, with HL-60, in the assay with K562, in the assay on RXF 393, in the assay with 786-0 and with NCI-H226 was > 100 µM (inactive) in each case. The GI50 with MOLT-4 and in the assay on SNB-19 was > 100 µM (inactive) each time.

Turning to `CC(=O)OCC1OC(n2c(C)cc(C)c(C#N)c2=S)C(OC(C)=O)C(OC(C)=O)C1OC(C)=O` (stereo not given), the GI50 in the assay with NCI-H23, in the assay on CCRF-CEM, in the assay with SR, with OVCAR-3, with OVCAR-8 and in the assay with SK-MEL-5 was > 100 µM (inactive) each time. Also, the GI50 with HCT-116, with SF-295, with HT-29, in the assay on SK-MEL-28, with IGROV-1 and in the assay with CAKI-1 was > 100 µM (inactive) throughout. The GI50 in the assay on OVCAR-4, in the assay on HL-60, in the assay on K562, in the assay with RXF 393, in the assay on 786-0 and in the assay on NCI-H226 was > 100 µM (inactive) throughout. Further, the GI50 in the assay on MOLT-4 and in the assay on SNB-19 was > 100 µM (inactive) in each case.

On to `CC1C2CC(CC2=O)C1(C)C` (stereo not given), for which the GI50 in the assay with NCI-H23, in the assay on CCRF-CEM, in the assay with SR, with OVCAR-3, in the assay with OVCAR-8 and with SK-MEL-5 was > 100 µM (inactive) each time. For the same compound, the GI50 with HCT-116, in the assay with SF-295, in the assay with HT-29, in the assay on SK-MEL-28, in the assay on IGROV-1 and in the assay on CAKI-1 was > 100 µM (inactive) in each case. For the same compound, the GI50 in the assay on OVCAR-4, with HL-60, in the assay on K562, with RXF 393, in the assay with 786-0 and in the assay on NCI-H226 was > 100 µM (inactive) throughout. Moreover, the GI50 in the assay with MOLT-4 and with SNB-19 was > 100 µM (inactive) throughout.

Turning to `Cn1c(=O)c2c([nH]/c(=N/N=C/c3ccccc3C(=O)O)n2C)n(C)c1=O`, the GI50 in the assay with NCI-H23, in the assay on CCRF-CEM, in the assay with SR, in the assay on OVCAR-3, with OVCAR-8 and in the assay with SK-MEL-5 was > 100 µM (inactive) throughout. Besides, the GI50 with HCT-116, in the assay with SF-295, in the assay with HT-29, in the assay on SK-MEL-28, with IGROV-1 and in the assay on CAKI-1 was > 100 µM (inactive) throughout. For the same compound, the GI50 with OVCAR-4, in the assay with HL-60, in the assay on K562, in the assay with RXF 393, in the assay with 786-0 and with NCI-H226 was > 100 µM (inactive) throughout. The GI50 with MOLT-4 and with SNB-19 was > 100 µM (inactive) in each case.

With `CN(CCCNC(=O)c1nn(-c2ccc(Cl)cc2Cl)c2c1ccc1ccccc12)CCCNC(=O)c1nn(-c2ccc(Cl)cc2Cl)c2c1ccc1ccccc12`, the GI50 in the assay with NCI-H23 is 1.81 µM (inactive); in the assay with CCRF-CEM, 1.92 µM (inactive); with SR, 0.278 µM (active); in the assay on OVCAR-3, 1.72 µM (inactive); with OVCAR-8, 1.82 µM (inactive); in the assay on SK-MEL-5, 1.88 µM (inactive). The GI50 was 1.67 µM (inactive) in the assay on HCT-116; 1.67 µM (inactive) with SF-295; 1.57 µM (inactive) in the assay on HT-29; 1.66 µM (inactive) in the assay on SK-MEL-28; 1.74 µM (inactive) in the assay on IGROV-1; 1.58 µM (inactive) with CAKI-1. The GI50 with OVCAR-4 was 1.68 µM (inactive); with HL-60, 0.322 µM (active); with K562, 1.1 µM (active); in the assay with RXF 393 it was 1.66 µM (inactive); with 786-0 it was 1.54 µM (inactive); in the assay with NCI-H226 it was 2.25 µM (inactive). The results for the GI50 with MOLT-4 and in the assay with SNB-19 were 1.61 µM (inactive) and 1.54 µM (inactive), respectively.

With `CCOC(CN(C)C(=O)Nc1cccc2ccccc12)OCC`, the GI50 in the assay with NCI-H23, in the assay with CCRF-CEM, in the assay with SR, in the assay with OVCAR-3, with OVCAR-8 and with SK-MEL-5 was > 10 µM (inactive) in each case. In addition, the GI50 in the assay on HCT-116, in the assay on SF-295, in the assay on HT-29, in the assay with SK-MEL-28, with IGROV-1 and in the assay with CAKI-1 was > 10 µM (inactive) throughout. The GI50 in the assay with OVCAR-4, in the assay with HL-60, with K562, with RXF 393, with 786-0 and with NCI-H226 was > 10 µM (inactive) throughout. Moreover, the GI50 in the assay on MOLT-4 and in the assay with SNB-19 was > 10 µM (inactive) throughout.

As to `COc1cc2c(cc1OC)C(=O)/C(=C/c1ccc([N+](=O)[O-])cc1)CC2`, the GI50 in the assay on NCI-H23, in the assay on CCRF-CEM, with SR, with OVCAR-3, in the assay with OVCAR-8 and in the assay with SK-MEL-5 was > 10 µM (inactive) in each case. The GI50 in the assay with HCT-116, in the assay with SF-295, in the assay on HT-29, in the assay on SK-MEL-28, with IGROV-1 and with CAKI-1 was > 10 µM (inactive) throughout. In addition, the GI50 in the assay with OVCAR-4, with HL-60, with K562, in the assay with RXF 393, in the assay on 786-0 and in the assay on NCI-H226 was > 10 µM (inactive) throughout. The GI50 with MOLT-4 and in the assay on SNB-19 was > 10 µM (inactive) in each case.

For the compound `COc1cc(C2c3cc4c(cc3[C@@H](Nc3ccc([N+](=O)[O-])cc3)C3COC(=O)[C@H]23)OCO4)cc(OC)c1O` (stereo not given in full), the GI50 was 0.569 µM (active) in the assay on NCI-H23; 0.198 µM (active) in the assay on CCRF-CEM; 0.0552 µM (active) in the assay with SR; 4.57 µM (inactive) with OVCAR-3; 1.83 µM (inactive) in the assay on OVCAR-8; 0.586 µM (active) with SK-MEL-5. Further, the GI50 with HCT-116 was 2.27 µM (inactive); with SF-295, 0.466 µM (active); in the assay on HT-29, 2.64 µM (inactive); in the assay with SK-MEL-28 it was 3.84 µM (inactive); with IGROV-1 it was 4.72 µM (inactive); in the assay on CAKI-1, 0.438 µM (active). In addition, the GI50 with OVCAR-4 was 12.2 µM (inactive); in the assay with HL-60 it was 0.263 µM (active); with K562 it was 2.44 µM (inactive); in the assay with RXF 393, 2.02 µM (inactive); in the assay with 786-0, 0.652 µM (active); with NCI-H226 it was 0.67 µM (active). The GI50 with MOLT-4 was 0.0171 µM (active); with SNB-19 it was 0.778 µM (active).

For the origin of these results see ChEMBL document CHEMBL1201862, “PubChem BioAssay data set” (2004).
